Values quoted from earlier work as cited in PMC3922827 (Journal of the American Chemical Society, 2013).
Where two headings read alike, the source gives them in different places. No end group written: not given here. *: point of attachment. For = O=C*

Conditions: graded or all-or-none class

| Substance | type of dye release from lipid vesicles | type of dye release from lipid vesicles (LUVs) |
| --- | --- | --- |
| AGWLLGKINLKALAALAKKIL-NH2 [TP10W] | graded |  |
| For-MAQKIISTIGKLVKWIIKTVNKFTKK [DL-1] |  | all-or-none |
